{"source": "patent US11592445B2", "about": "“OLFR90 specificity and methods of detection” (THE JOHNS HOPKINS UNIVERSITY, priority 2016, dated 2023)"}
{"target": "T1, Olfr90 (Mus musculus, UniProt Q0VEL5)", "T1 construct": "Flag; expressed in transfected cells; host or cells: HEK293T", "T1 sequence (Q0VEL5 1-310)": "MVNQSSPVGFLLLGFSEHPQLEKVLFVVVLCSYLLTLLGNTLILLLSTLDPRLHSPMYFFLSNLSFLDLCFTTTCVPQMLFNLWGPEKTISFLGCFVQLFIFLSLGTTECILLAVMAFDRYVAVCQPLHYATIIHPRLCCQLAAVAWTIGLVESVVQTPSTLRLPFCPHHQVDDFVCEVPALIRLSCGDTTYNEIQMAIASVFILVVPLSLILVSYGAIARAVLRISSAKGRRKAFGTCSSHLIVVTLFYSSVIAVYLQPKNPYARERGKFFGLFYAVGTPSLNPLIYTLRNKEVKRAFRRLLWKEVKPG", "assay": "Luciferase reporter assay for ligand screening, HEK293T cells transfected with Lucy-Olfr90", "type": "cell-based", "conditions": "FIG. 2: p<0.0005 for all conditions vs 0 mM", "description": "HEK293T cells were transfected with Lucy-Olfr90 and two luciferase constructs, one of which was constitutively active (Renilla) while the other was only activated by an increase in intracellular cyclic AMP due to ligand binding (Firefly).\nA luciferase reporter assay was employed for ligand screening (FIG. 1). In this assay, Olfr90 may be transfected into HEK293T cells along with a firefly luciferase construct whose activity is dependent upon elevated [cAMP]i. Upon binding its ligand, the expressed Olfr90 increases [cAMP]i, leading to increased transcription of firefly luciferase (FIG. 1). A constitutively active luciferase (Renilla) is co-transfected; therefore, the ratio of Firefly/Renilla is a measure of OR activation.\nIn this assay, it is essential that the Olfr90 is on the cell surface. […] A novel N-terminal tag which allows for surface trafficking of the majority of the renal Olfr90 was used. This tag is a leucine rich 17 amino acid sequence (“Lucy” tag) that not only aids in trafficking to the surface, but is cleaved before the Olfr90 reaches the cell surface.\nIn HEK cells or hana3 cells, Olfr90 will be expressed along with along with a firefly luciferase construct whose activity is dependent upon elevated [cAMP]i. Olfr90 may be transfected with or without various chaperones (Ric8b, RTP1S, REEP, etc.) and with or without various tags (Rho, Flag, Lucy, etc.). Upon binding its ligand, the expressed OR increases [cAMP]i, leading to increased transcription of firefly luciferase. A constitutively active luciferase (Renilla) is co-transfected; therefore, the ratio of Firefly/Renilla is a measure of OR activation."}
{"compound": "C=CC(C)(O)CCC=C(C)C", "note": "(stereo not drawn) [Linalool]", "Olfr90 response (luciferase output, Firefly/Renilla ratio) to isolated chemicals": "responded in a dose dependent manner"}
{"compound": "CCCC1CCSC(C)O1", "note": "(stereo not drawn) [MPOT, 2-Methyl-4-Propyl-3,1-Oxathiane]", "Olfr90 response (luciferase output, Firefly/Renilla ratio) to isolated chemicals": "responded in a dose dependent manner"}
{"compound": "C=CC(O)CCCCC", "note": "(stereo not drawn) [Odorant 1-Octen-3-ol, 1-Octen-3-ol]", "Olfr90 response (luciferase output, Firefly/Renilla ratio) to isolated chemicals": "responded in a dose dependent manner"}
